Measurements from US8993606B2, “Oral formulations for treating metal overload” (FerroKin BioSciences, Inc., priority 2011, dated 2015).
Read-outs that look alike come from different tables or passages of the source.

What was measured:
[1] = Example 8: single-dose study in healthy human subjects 3-16 mg/kg (PK); format: in vivo; conditions: for half-life / AUC(0-t) / AUC(0-inf) / Cmax / Tmax: male, human, plasma; for AUC(0-t) / Cmax / Tmax: mean of 3 subjects
Text: Example 8 was a double-blind, placebo-controlled single dose-escalating study in healthy subjects. Men between the ages of 18-45 years qualified to participate if they were able to voluntarily give consent and had no clinically significant abnormal findings at the screening evaluation. Specifically, subjects had blood pressure in the normal range, ECG and clinical laboratory values within normal limits, tested negative for drugs of abuse and had not recently donated blood. Subjects were also HIV, Hepatitis B, and Hepatitis C negative and agreed to use an approved method of contraception during the study.
The objectives of this study were to assess the safety, tolerability, and pharmacokinetics of ascending single doses of Compound 1 compared to placebo. Additionally, dose proportionality and pharmacodynamics of Compound 1 were assessed. Four doses of Compound 1 (3, 6, 10, and 16 mg/kg), in capsule form, were evaluated in this study. Following screening, subjects in a given cohort were randomly assigned to receive either Compound 1 or placebo. In the first cohort, 3 subjects received […] and 2 received placebo; in each of the subsequent remaining 3 cohorts, 3 subjects received the next higher dose of Compound 1 and 1 received placebo. Subjects were dosed and then confined to the clinical research unit for 24 hours to conduct safety and pharmacokinetic assessments. Subjects were released from the clinic on Day 2 and returned daily for follow-up visits for 5 days post-dosing.
All 12 subjects who received a dose of Compound 1 were included in the analysis of pharmacokinetic parameters. All 17 subjects enrolled in the study were included in the analysis of pharmacodynamics.
Blood samples for determination of total (free and iron bound complex) plasma Compound 1 concentrations were collected on Day 1 at pre-dose (within 60 minutes prior to dose administration) and then at 0.25, 0.5, 0.75, 1, 1.5, 2, 2.5, 3, 3.5, 4, 8, 12 hours post-dose; on Day 2 at 24 and 36 hours post-dose; on Day 3 at 48 hours post-dose, on Day 4 at 72 hours post-dose; and on Day 5 at 96 hours post-dose.
Total urine collection for pharmacokinetic and pharmacodynamic assessment was performed at pre-dose and then for intervals 0-4, 4-8, 8-12, 12-24 hours post-dose. Collection of total urine for 24 hours post-dose for pharmacokinetic analysis was complete for all subjects who received a dose of Compound 1. It was noted, however, that Subject R105 (placebo) voided into the toilet once (at 3 minutes post-dose) during the 0-4 hour post-dose urine collection interval.

[2] = test system: pediatric subjects (aged 6-18 years) with documented transfusional iron overload; experiment: Safety: pediatric Phase 2 study; format: in vivo, human
Text: A pediatric study is an ongoing Phase 2 multicenter, randomized, open-label study of pediatric subjects (aged 6-18 years) with documented transfusional iron overload in need of chelation therapy. 6 subjects (aged 12-<18 years) of a planned 30 subjects had been enrolled and administered investigational product. These subjects received a single dose for pharmacokinetic analysis with the option to continue in the 48-week study. […] Dosing was temporarily discontinued for 2 subjects; 1 subject for moderate decrease in neutrophil count, which was considered possibly related, and 1 for a mild upper respiratory tract infection that was considered not related. Treatment-emergent AEs were reported for 5 of the 6 subjects. Treatment emergent AEs considered possibly related to the investigational product include arthralgia (1), decreased neutrophil count (1), neutropenia (1), and headache (1).

[3] = single oral dose 10 mg/kg, mean
[4] = single oral dose 16 mg/kg, mean

COCCOCCOCCOc1cccc(C2=N[C@@](C)(C(=O)O)CS2)c1O [Compound 1, (S)-4,5-Dihydro-2-[2-hydroxy-3-(3,6,9-trioxadecyloxy)phenyl]-4-methyl-4-thiazolecarboxylate magnesium hydroxide]
dose dependence of mean Cmax and AUC ([1]; 3-16 mg/kg): linear across the dose range | total fraction of administered drug excreted in urine over 24 hour, range ([1]; across all 4 dose levels): 19-83% | total fraction of administered drug excreted in urine over 24 hour, average ([1]; all 4 dose levels, standard deviation 18%): 59% | half-life ([1]; oral, 11 of 12 subjects, 3-16 mg/kg, read-out: median t1/2 (converted)): 7.32 h | half-life ([1]; oral, 11 of 12 subjects, 3-16 mg/kg, read-out: t1/2, range): 3.77 to 35.2 h | half-life ([1]; oral, 11 of 12 subjects, 3-16 mg/kg, standard deviation 10.1, read-out: mean t1/2 (converted)): 12.8 h | AUC(0-t) ([1]; po, 3 mg/kg, single oral dose 3 mg/kg, read-out: AUC0-24): 12100 ng·h/mL | AUC(0-t) ([1]; po, 3 mg/kg, single oral dose 3 mg/kg, read-out: AUC0-t): 12100 ng·h/mL | half-life ([1]; po, 3 mg/kg, single oral dose 3 mg/kg, mean, read-out: t1/2 (converted)): 4.4 h | AUC(0-t) ([1]; po, 6 mg/kg, single oral dose 6 mg/kg, read-out: AUC0-24): 24700 ng·h/mL | AUC(0-t) ([1]; po, 6 mg/kg, single oral dose 6 mg/kg, read-out: AUC0-t): 25300 ng·h/mL | half-life ([1]; po, 6 mg/kg, single oral dose 6 mg/kg, mean, read-out: t1/2 (converted)): 15.4 h | AUC(0-t) ([1]; po, 10 mg/kg, single oral dose 10 mg/kg, read-out: AUC0-24): 42700 ng·h/mL | AUC(0-t) ([1]; po, 10 mg/kg, single oral dose 10 mg/kg, read-out: AUC0-t): 43400 ng·h/mL | half-life ([1]; po, 10 mg/kg, single oral dose 10 mg/kg, mean, read-out: t1/2 (converted)): 16.1 h | AUC(0-t) ([1]; po, 16 mg/kg, single oral dose 16 mg/kg, read-out: AUC0-24): 74600 ng·h/mL | AUC(0-t) ([1]; po, 16 mg/kg, single oral dose 16 mg/kg, read-out: AUC0-t): 75400 ng·h/mL | half-life ([1]; po, 16 mg/kg, single oral dose 16 mg/kg, mean, read-out: t1/2 (converted)): 16.1 h | AUC(0-inf) ([1]; single oral dose 3 mg/kg, mean): 12200 ng·h/mL | Cmax ([1]; single oral dose 3 mg/kg): 5410 ng/mL | Tmax ([1]; single oral dose 3 mg/kg): 1.33 h | AUC(0-inf) ([1]; single oral dose 6 mg/kg, mean): 26600 ng·h/mL | Cmax ([1]; single oral dose 6 mg/kg): 12200 ng/mL | Tmax ([1]; single oral dose 6 mg/kg): 0.92 h | AUC(0-inf) [1, 3]: 43600 ng·h/mL | Cmax ([1]; single oral dose 10 mg/kg): 16600 ng/mL | Tmax ([1]; single oral dose 10 mg/kg): 1.17 h | AUC(0-inf) [1, 4]: 75600 ng·h/mL | Cmax ([1]; single oral dose 16 mg/kg): 34800 ng/mL | Tmax ([1]; single oral dose 16 mg/kg): 1 h | kel ([1]; single oral dose 3 mg/kg, mean): 0.1595 h⁻¹ | kel ([1]; single oral dose 6 mg/kg, mean): 0.0469 h⁻¹ | kel [1, 3]: 0.0562 h⁻¹ | kel [1, 4]: 0.0779 h⁻¹ | possibly related TEAE arthralgia ([2]; 6 subjects): 1 | possibly related TEAE decreased neutrophil count ([2]; 6 subjects): 1 | possibly related TEAE headache ([2]; 6 subjects): 1 | possibly related TEAE neutropenia ([2]; 6 subjects): 1 | SAEs ([2]; 6 subjects aged 12-<18 years): No SAEs have been reported | subjects with treatment-emergent AEs ([2]; 6 subjects aged 12-<18 years): 5 of the 6
